Values quoted from earlier work in article PMC7395068, “The evolution of strategies to minimise the risk of human drug-induced liver injury (DILI) in drug discovery and development” (Archives of Toxicology, 2020).
Read-outs that look alike come from different tables or passages of the source.

Assays:
[1] = test system: HepG2 cells; settings: cited from earlier work
[2] = cited from earlier work
[3] = test system: human hepatocytes; settings: In vitro Assay; ref Xu 2008; cited from earlier work
[4] = cited from earlier work; remark: listed apart in the source
[5] = test system: THLE or HepG2 cells, isolated mitochondria, BSEP; settings: cited from earlier work
[6] = test system: HepG2 cells; settings: cited from earlier work; remark: listed apart in the source
[7] = test system: HepG2 cells; settings: In vitro Assay; ref Persson 2013; cited from earlier work
[8] = test system: PHH; settings: In vitro Assay; ref Proctor 2017; cited from earlier work
[9] = test system: hLiMTs; settings: In vitro Assay; ref Proctor 2017; cited from earlier work
[10] = test system: HepG2 C3A spheroid, BSEP, Glu/Gal in HepG2 cells, bioactivation; settings: In vitro Assay; ref Williams 2019; cited from earlier work
[11] = test system: THLE-Null and THLE-3A4 cells; settings: In vitro Assay; ref Gustafsson 2014; cited from earlier work
[12] = test system: HepG2 cells, primary human hepatocytes; settings: In vitro Assay; ref Garside 2014; cited from earlier work
[13] = ref Chen 2011; cited from earlier work
[14] = test system: rBsep; settings: In vitro Assay; ref Dawson 2012; cited from earlier work
[15] = test system: isolated mouse liver mitochondria; settings: In vitro Assay; ref Porceddu 2012; cited from earlier work
[16] = test system: PHH spheroids; settings: In vitro Assay; ref Vorrink 2018; cited from earlier work
[17] = In vitro Assay, ref Tolosa 2012
[18] = In vitro Assay, ref O'Brien 2006
[19] = assignment in Tolosa 2012, ref Tolosa 2012

OC[C@H]1O[C@@H](O[C@H]2[C@H](O)[C@@H](O)C(O)O[C@@H]2CO)[C@H](O)[C@@H](O)[C@H]1O (mixture of isomers) [lactose]
Structural based (HCI) [1]: -VE
In vivo DILI ([2]; in vivo): -VE

O=[N+]([O-])c1ccc(O)c([N+](=O)[O-])c1 [2,4 dinitrophenol]
Structural based (HCI) [1, 17]: +VE
In vivo DILI ([2]; ref Tolosa 2012): +VE

CC(=O)Nc1cccc(O)c1 [3-acetamidophenol]
Structural based (HCI) [1, 17]: -VE
Structural based (HCI) [3]: -VE
In vivo DILI ([2]; ref O'Brien 2006): -VE
In vivo DILI ([2]; ref Tolosa 2012): -VE
In vivo DILI ([2]; ref Xu 2008): -VE

C#C[C@]1(O)CC[C@H]2[C@@H]3CCc4cc(O)ccc4[C@H]3CC[C@@]21C [17-a ethynylestradiol]
Structural based (HCI) [1]: +VE

NCC[C@H](O)C(=O)N[C@@H]1C[C@H](N)[C@@H](O[C@H]2O[C@H](CN)[C@@H](O)[C@H](O)[C@H]2O)[C@H](O)[C@H]1O[C@H]1O[C@H](CO)[C@@H](O)[C@H](N)[C@H]1O [amikacin]
DILI +VE (5-8), DILI -VE (-4) ([4]; ref Chen 2016): -VE
DILI severity category ([4]; ref Chen 2016): vNo-DILI-Concern
Structural based (HCI) [1, 17]: -VE
Partition Hybrid HRM Score ([5]; In vitro Assay, ref Aleo 2019): +VE
Ro2 Hybrid HRM Score ([5]; In vitro Assay, ref Aleo 2019): +VE
In vivo DILI ([2]; ref Aleo 2019): -VE
In vivo DILI ([2]; ref Tolosa 2012): +VE

CN1[C@@H]2CC[C@H]1C[C@@H](OC(=O)C(CO)c1ccccc1)C2 (some centres unmarked) [atropine]
Structural based (HCI) [1]: +VE

CCN(CC)CCCC(C)Nc1ccnc2cc(Cl)ccc12 (centres unmarked) [chloroquine]
DILI +VE (5-8), DILI -VE (-4) ([4]; in vivo): +VE
DILI severity category ([4]; in vivo): vLess-DILI-Concern
Structural based (HCI) [6]: +VE
Structural based (HCI) [1]: +VE
Ro2 Hybrid HRM Score [5]: +VE

CC(C)(OO)c1ccccc1 [cumene hydroperoxide]
Structural based (HCI) [1, 17]: +VE
In vivo DILI ([2]; ref Tolosa 2012): +VE

C[C@@H]1C[C@@H]([C@H](O)CC2CC(=O)NC(=O)C2)C(=O)[C@@H](C)C1 [cycloheximide]
Structural based (HCI) [1]: +VE
In vivo DILI ([2]; in vivo): +VE

C[S+](C)[O-] [dimethyl dulfoxide]
Cluser analysis [7]: -VE
Structural based (HCI) [7]: -VE
Structural based (HCI) [1, 17]: -VE
In vivo DILI ([2]; ref Persson 2013): -VE
In vivo DILI ([2]; ref Tolosa 2012): -VE

NC(=O)OCC(COC(N)=O)c1ccccc1 [felbamate]
DILI +VE (5-8), DILI -VE (-4) ([4]; ref Chen 2016): +VE
DILI severity category ([4]; ref Chen 2016): vMost-DILI-Concern
Structural based (HCI) [6, 18]: +VE
Cluser analysis [7]: -VE
Structural based (HCI) [7]: -VE
Structural based (HCI) [3]: -VE
PHH ATP <100uM [8]: -VE
hLiMTs ATP <100uM [9]: -VE
Bayesian Machine Learning [10]: +VE
In vivo DILI ([2]; […]): +VE
In vivo DILI ([2]; ref Dawson 2012): +VE
In vivo DILI ([2]; ref Garside 2014): +VE
In vivo DILI ([2]; ref Gustafsson 2014): +VE
In vivo DILI ([2]; ref O'Brien 2006): +VE
In vivo DILI ([2]; ref Persson 2013): +VE
In vivo DILI ([2]; ref Proctor 2017): +VE
In vivo DILI ([2]; ref Williams 2019): +VE
In vivo DILI ([2]; ref Xu 2008): +VE
THLE-Null [11]: -VE
THLE-Null/3A4 [11]: -VE
Cluster 1-6 +VE Assay [12]: -VE
DILI Score (FDA) (1-8) [13]: 7
Inhibition of rBsep cutoff<1& cmax u>.2 [14]: -VE
Inhibition of rBsep cutoff<3 [14]: -VE

N[C@H]1C(O)O[C@H](CO)[C@H](O)[C@@H]1O (some centres unmarked) [galactosamine]
Structural based (HCI) [1, 17]: -VE
In vivo DILI ([2]; ref O'Brien 2006): +VE
In vivo DILI ([2]; ref Tolosa 2012): +VE

C[C@H](CCC(=O)NCC(=O)O)[C@H]1CC[C@H]2[C@@H]3[C@H](O)C[C@@H]4C[C@H](O)CC[C@]4(C)[C@H]3CC[C@]12C [glycochenodeoxycholate]
Structural based (HCI), In vitro Assay ([1]; HepG2 HCI, ref Tolosa 2012): +VE
In vivo DILI [2, 19]: +VE

CC[C@H](C)C(=O)O[C@H]1C[C@@H](C)C=C2C=C[C@H](C)[C@H](CC[C@@H]3C[C@@H](O)CC(=O)O3)[C@H]21 [lovastatin]
Structural based (HCI) [6, 18]: -VE
Structural based (HCI) [1, 17]: +VE
Structural based (HCI) [3]: -VE
in vitro data EC2<=1x Cmax [15]: -VE
in vitro data EC20<=2uM [15]: +VE

CCOC(=O)CC(SP(=S)(OC)OC)C(=O)OCC (centres unmarked) [malathion]
Structural based (HCI), In vitro Assay ([1]; HepG2 HCI, ref Tolosa 2012): +VE
In vivo DILI [2, 19]: +VE

CNCCCC12CCC(c3ccccc31)c1ccccc12 [maprotiline]
DILI +VE (5-8), DILI -VE (-4) ([4]; ref Chen 2016): -VE
DILI severity category ([4]; ref Chen 2016): Ambiguous DILI-concern
Structural based (HCI) [1, 17]: +VE
Structural based (HCI) [3]: -VE
Partition Hybrid HRM Score ([5]; In vitro Assay, ref Aleo 2019): +VE
Ro2 Hybrid HRM Score ([5]; In vitro Assay, ref Aleo 2019): +VE
In vivo DILI ([2]; […]): -VE
In vivo DILI ([2]; ref Tolosa 2012): +VE
In vivo DILI ([2]; ref Xu 2008): -VE

[Cl][Hg][Cl] [mercury ii chloride]
Structural based (HCI), In vitro Assay ([1]; HepG2 HCI, ref Tolosa 2012): +VE
In vivo DILI [2, 19]: +VE

CN(CCCC(=O)c1cccnc1)N=O [nnk]
Structural based (HCI), In vitro Assay ([1]; HepG2 HCI, ref Tolosa 2012): +VE
In vivo DILI [2, 19]: +VE

C[n+]1ccc(-c2cc[n+](C)cc2)cc1 [paraquat]
Structural based (HCI), In vitro Assay ([1]; HepG2 HCI, ref Tolosa 2012): +VE
In vivo DILI [2, 19]: +VE

Oc1c(Cl)c(Cl)c(Cl)c(Cl)c1Cl [pentachlorophenol]
Structural based (HCI) [1]: +VE
In vivo DILI ([2]; in vivo): +VE

CCCCOCCOCCOCc1cc2c(cc1CCC)OCO2 [piperonyl butoxide]
Structural based (HCI), In vitro Assay ([1]; HepG2 HCI, ref Tolosa 2012): +VE
In vivo DILI [2, 19]: +VE

CCCC(CCC)C(=O)O [sodium valproate]
Structural based (HCI), In vitro Assay ([1]; HepG2 HCI, ref Tolosa 2012): +VE

OC[C@@H](O)[C@@H](O)[C@H](O)[C@@H](O)CO [sorbitol]
DILI +VE (5-8), DILI -VE (-4) ([4]; ref Chen 2016): -VE
DILI severity category ([4]; ref Chen 2016): vNo-DILI-Concern
Structural based (HCI) [1, 17]: -VE
Structural based (HCI) [3]: -VE
In vivo DILI ([2]; ref O'Brien 2006): -VE
In vivo DILI ([2]; ref Tolosa 2012): -VE
In vivo DILI ([2]; ref Xu 2008): -VE

C[C@H](CCC(=O)NCCS(=O)(=O)O)[C@H]1CC[C@H]2[C@@H]3CC[C@@H]4C[C@H](O)CC[C@]4(C)[C@H]3CC[C@]12C [taurolithocholate]
Structural based (HCI), In vitro Assay ([1]; HepG2 HCI, ref Tolosa 2012): +VE
In vivo DILI [2, 19]: +VE

CC(C)(C)OO [tert-butyl hydroperoxide]
Structural based (HCI), In vitro Assay [1]: +VE
In vivo DILI ([2]; in vivo): +VE

CC(=N)S [thioacetamide]
Structural based (HCI) [1, 17]: -VE
Structural based (HCI) [3]: -VE
In vivo DILI ([2]; ref O'Brien 2006): +VE
In vivo DILI ([2]; ref Tolosa 2012): +VE
In vivo DILI ([2]; ref Xu 2008): +VE

CCN(CC)CCOc1ccc2c(c1)C(=O)c1cc(OCCN(CC)CC)ccc1-2 [tilorone]
Structural based (HCI), In vitro Assay ([1]; HepG2 HCI, ref Tolosa 2012): +VE
In vivo DILI [2, 19]: +VE

CC(c1cc2ccccc2s1)N(O)C(N)=O (centres unmarked) [zileuton]
DILI +VE (5-8), DILI -VE (-4) ([4]; ref Chen 2016): +VE
DILI severity category ([4]; ref Chen 2016): vMost-DILI-Concern
Structural based (HCI) [6, 18]: +VE
Cluser analysis [7]: -VE
Structural based (HCI) [7]: +VE
Structural based (HCI) [3]: +VE
PHH ATP <100uM [8]: -VE
hLiMTs ATP <100uM [9]: -VE
hLiMTs ATP <20 x Cmax [16]: -VE
Bayesian Machine Learning [10]: +VE
In vivo DILI ([2]; […]): +VE
In vivo DILI ([2]; ref Dawson 2012): +VE
In vivo DILI ([2]; ref Garside 2014): +VE
In vivo DILI ([2]; ref Gustafsson 2014): +VE
In vivo DILI ([2]; ref O'Brien 2006): +VE
In vivo DILI ([2]; ref Persson 2013): +VE
In vivo DILI ([2]; ref Proctor 2017): +VE
In vivo DILI ([2]; ref Vorrink 2018): +VE
In vivo DILI ([2]; ref Williams 2019): +VE
In vivo DILI ([2]; ref Xu 2008): +VE
THLE-Null [11]: -VE
THLE-Null/3A4 [11]: -VE
Cluster 1-6 +VE Assay [12]: -VE
DILI Score (FDA) (1-8) [13]: 5
Inhibition of rBsep cutoff<1& cmax u>.2 [14]: -VE
Inhibition of rBsep cutoff<3 [14]: -VE

gentamycin
Structural based (HCI) [6, 18]: +VE
Structural based (HCI) [1, 17]: -VE
In vivo DILI ([2]; […]): -VE
In vivo DILI ([2]; ref O'Brien 2006): -VE
In vivo DILI ([2]; ref Porceddu 2012): +VE
In vivo DILI ([2]; ref Tolosa 2012): -VE
in vitro data EC2<=1x Cmax [15]: +VE
in vitro data EC20<=2uM [15]: +VE
